This is an account of results in US11634417B2 (Array BioPharma Inc., priority 2019, dated 2023).

Experiment [1] deals with T1, full-length SHP2 (Homo sapiens, UniProt Q06124).
T1 construct: 1 nM full-length SHP2 (His6-tagged SHP2(2-527), recombinantly expressed in E. coli and purified in-house); His6; made in house; host or cells: E. coli
T1 sequence (Q06124 2-527): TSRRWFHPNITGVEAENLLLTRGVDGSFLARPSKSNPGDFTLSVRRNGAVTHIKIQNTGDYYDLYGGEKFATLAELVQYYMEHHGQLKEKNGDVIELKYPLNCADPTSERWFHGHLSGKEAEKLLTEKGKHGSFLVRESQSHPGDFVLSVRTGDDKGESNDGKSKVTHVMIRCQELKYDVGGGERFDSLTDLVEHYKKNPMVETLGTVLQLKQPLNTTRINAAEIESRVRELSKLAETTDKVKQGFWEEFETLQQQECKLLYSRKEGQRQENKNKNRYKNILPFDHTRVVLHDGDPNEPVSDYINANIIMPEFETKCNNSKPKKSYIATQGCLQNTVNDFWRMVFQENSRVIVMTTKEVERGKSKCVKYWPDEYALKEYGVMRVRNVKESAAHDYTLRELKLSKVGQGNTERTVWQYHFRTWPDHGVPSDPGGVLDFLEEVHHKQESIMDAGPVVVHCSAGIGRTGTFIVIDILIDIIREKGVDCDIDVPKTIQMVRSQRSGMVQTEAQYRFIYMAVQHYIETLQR
Put plainly: SHP2 enzymatic assay (fluorescence intensity kinetic assay, DiFMUP hydrolysis). It counts as biochemical. The conditions noted are these: 1 nM His6-tagged SHP2(2-527), 1 μM activating peptide, 50 μM DiFMUP; single assay or mean of multiple assays; read-out: Biological Example 1 IC50. The protocol:
A fluorescence intensity kinetic assay was configured for full-length SHP2 that monitors the amount of 6,8-difluoro-7-hydroxy-4-methylcoumarin (“DiFMU”) formed upon hydrolysis of 6,8-difluoro-4-methylumbelliferyl phosphate (“DiFMUP”) by SHP2. […] Low control wells lacked enzyme. The assays were initiated by the addition of a mixture of SHP2 and the activating peptide, and following a 15 second mix on an orbital shaker, were read in kinetic mode for 15 minutes (30 seconds/cycle) at ambient temperature on a PerkinElmer EnVision microplate reader (kEx=355 nm, kEm=460 nm). Initial velocities (slopes of the tangents at t=0) were estimated from exponential fits to the slightly nonlinear progress curves and then were converted to percent of control (“POC”) using the following equation:
[formula] • Where: xmax Average Uninhibited Controls • Xmin Average Background A 4-parameter logistic model was the fit to the POC data for each compound. From that fit, the IC50 was estimated and is defined as the concentration of compound at which the curve crosses 50 POC.

For experiment [2], the system named is ERK1/2 (Thr202/Tyr204) phosphorylation in KYSE520 cells. Put plainly: Cellular Phospho-p44/42 MAPK (Erk1/2) (Thr202/Tyr204) assay, In-Cell Western. It counts as cell-based. The conditions noted are these: Homo sapiens; for pIC50: KYSE-520, KYSE520 cells, 1 hour incubation, pERK signal normalized to GAPDH, single assay or mean of multiple assays, read-out: Biological Example 2 IC50; for IC50: KYSE-520, 1 h, read-out: Biological Example 2 IC50 (nM). The protocol: Inhibition of ERK1/2 (Thr202/Tyr204) phosphorylation was determined by the following cellular assay, which comprises incubating cells with a compound for 1 hour and quantifying pERK signal by In-Cell Western on fixed cells and normalizing to GAPDH signal. KYSE520 cells were obtained from DSMZ and grown in RPMI supplemented with 10% fetal bovine serum, penicillin/streptomycin, 2 mM L-alanyl-L-glutamine dipeptide in 0.85% NaCl (Glutamax™), non-essential amino acids, and sodium pyruvate. Cells were plated in 96-well plates at 30,000 cells/well and allowed to attach overnight at 37° C./5% CO2. Cells were treated with compounds prepared as a 10-point, 1:3 dilution series (range: 20 μM-1 nM), with a final DMSO concentration of 0.5%. After 1 hour incubation, cells were fixed in 3.7% formaldehyde in Dulbecco's phosphate-buffered saline (“dPBS”) at room temperature for 20 minutes. Cells were then washed with dPBS and permeabilized in 100% MeOH at room temperature for 10 minutes. Following permeabilization, cells were washed in dPBS and incubated in LI-COR Blocking Buffer (LI-COR Biosciences, Cat #927-40000) for 1 hour or longer. Plates were then incubated with an antibody specific for the MEK-dependent ERK1/2 phosphorylation sites, threonine 202 and tyrosine 204 (Cell Signaling Technologies; Cat #9101), downstream of SHP2 in the MAP kinase signal transduction pathway, as well as GAPDH (Millipore; Cat #MAB374). pErk1/2 (Thr202/Tyr204) antibody was diluted in LI-COR blocking buffer containing 0.05% polysorbate-20 (Tween-20) at 1:250; GAPDH was diluted at 1:2,500. The plates were incubated overnight at 4° C. After washing with PBS/0.05% Tween-20, the cells were incubated with fluorescently-labeled secondary antibodies (Anti-rabbit-Alexa Flour680, Invitrogen Cat #A21109; Anti-mouse-IRDye800CW, Li-cor Bioscieces Cat #926-32210, both at 1:1000 dilution) for 1 hour. Cells were then washed, as above, and analyzed for fluorescence at both 680 nm and 800 nm wavelengths using the Aerius Infrared Imaging System (LI-COR Biosciences, Model 9250). Phosphorylated Erk1/2 ([…]) signal was normalized to GAPDH signal for each well. IC50 values were calculated from the normalized values using a 4-parameter fit in BioAssay software. The reported IC50 in Table 2 may be from a single assay or the mean of multiple assays.

pIC50: −log10 of the molar value. Where two headings read alike, the source gives them in different places.

In general, pIC50 refers to the negative decadic logarithm of the IC50, by convention in mol/L. As to `CNc1nccc(Sc2cnc(N3CCC4(CC3)Cc3cc(C#N)ccc3[C@H]4N)nn2)c1Cl` (single isomer, unassigned) [Example 41], the negative logarithm of the IC50 (pIC50) in experiment [1] is 7.10; in experiment [2], 7.72.
For `CNc1nccc(Sc2cnc(N3CCC4(CC3)Cc3cc(C#N)ccc3[C@@H]4N)nn2)c1Cl` (single isomer, unassigned) [Example 42], in that order: 6.68 and 6.09.
The like results for `COc1cnc2c(c1)[C@H](N)C1(CCN(c3ncc(Sc4ccnc(N)c4Cl)nn3)CC1)C2` (single isomer, unassigned) [Example 43] were, in that order, 6.85 and 6.29.
For `COc1cnc2c(c1)[C@@H](N)C1(CCN(c3ncc(Sc4ccnc(N)c4Cl)nn3)CC1)C2` (single isomer, unassigned) [Example 44], in that order: 7.43 and 8.40.
Regarding `C[C@@H]1OCC2(CCN(c3ncc(Sc4ccnc(N)c4Cl)nn3)CC2)[C@@H]1N` [Example 1, (3S,4S)-8-(6-((2-amino-3-chloropyridin-4-yl)thio)-1,2,4-triazin-3-yl)-3-methyl-2-oxa-8-azaspiro[4.5]decan-4-amine], the negative logarithm of the IC50 (pIC50) is 7.23 in experiment [1] and 7.26 in experiment [2].
For `C[C@@H]1OCC2(CCN(c3ncc(-c4cccc(Cl)c4Cl)nn3)CC2)[C@@H]1N` [Example 2, (3S,4S)-8-(6-(2,3-dichlorophenyl)-1,2,4-triazin-3-yl)-3-methyl-2-oxa-8-azaspiro[4.5]decan-4-amine], in that order: 7.12 and 5.56.
With `Nc1nccc(Sc2cnc(N3[C@H]4CC[C@H]3CC(N)C4)nn2)c1Cl` (stereo partly drawn) [Example 3, (1R,3s,5S)-8-(6-((2-amino-3-chloropyridin-4-yl)thio)-1,2,4-triazin-3-yl)-8-azabicyclo[3.2.1]octan-3-amine], the figures for the negative-log IC50 (pIC50) in experiment [1] and in experiment [2] were 6.20 and 5.89, respectively.
In the case of `Cc1nc(N2CCC3(CC2)CO[C@@H](C)[C@H]3N)nnc1Sc1ccnc(N)c1Cl` [Example 4, (3S,4S)-8-(6-((2-amino-3-chloropyridin-4-yl)thio)-5-methyl-1,2,4-triazin-3-yl)-3-methyl-2-oxa-8-azaspiro[4.5]decan-4-amine], the negative logarithm of the IC50 (pIC50) in experiment [1] was 6.94; in experiment [2], 6.28.
For `Cc1nc(N2CCC3(CC2)CO[C@@H](C)[C@H]3N)nnc1-c1cccc(Cl)c1Cl` [Example 5, (3S,4S)-8-(6-(2,3-dichlorophenyl)-5-methyl-1,2,4-triazin-3-yl)-3-methyl-2-oxa-8-azaspiro[4.5]decan-4-amine], in that order: 7.55 and 6.47.
What is called IC50 is the concentration needed to halve the response being measured. As for `Nc1nccc(Sc2cnc(N3CCC4(CC3)Cc3ccccc3[C@H]4N)nn2)c1Cl` [Example 6, (S)-1′-(6-((2-amino-3-chloropyridin-4-yl)thio)-1,2,4-triazin-3-yl)-1,3-dihydrospiro[indene-2,4′-piperidin]-1-amine], the half-inhibitory concentration (IC50) in experiment [2] is 2 nM.
Take `C[C@@H]1OCC2(CCN(c3ncc(Sc4cccc(Cl)c4Cl)nn3)CC2)[C@@H]1N` [Example 7, (3S,4S)-8-(6-((2,3-dichlorophenyl)thio)-1,2,4-triazin-3-yl)-3-methyl-2-oxa-8-azaspiro[4.5]decan-4-amine]: the results for the pIC50 in experiment [1] and in experiment [2] were 7.77 and 7.05, respectively.
Regarding `N[C@@H]1c2ccccc2CC12CCN(c1ncc(N3CCc4cnccc43)nn1)CC2` [Example 15, (S)-1′-(6-(2,3-dihydro-1H-pyrrolo[3,2-c]pyridin-1-yl)-1,2,4-triazin-3-yl)-1,3-dihydrospiro[indene-2,4′-piperidin]-1-amine], in experiment [1], the pIC50 is 5.10.
With `Nc1nccc(Sc2cnc(N3CCC4(CC3)Cc3ccccc3[C@@H]4N)nn2)c1Cl` [Example 20, (R)-1′-(6-((2-amino-3-chloropyridin-4-yl)thio)-1,2,4-triazin-3-yl)-1,3-dihydrospiro[indene-2,4′-piperidin]-1-amine], in experiment [2], the concentration for half-maximal inhibition (IC50) amounted to 206 nM.
As for `C[C@@H]1OCC2(CCN(c3ncc(Sc4ccnc(N)c4F)nn3)CC2)[C@@H]1N` [Example 21, (3S,4S)-8-(6-((2-amino-3-fluoropyridin-4-yl)thio)-1,2,4-triazin-3-yl)-3-methyl-2-oxa-8-azaspiro[4.5]decan-4-amine], the negative logarithm of the IC50 (pIC50) in experiment [1] is 4.95.
Consider `N[C@@H]1c2ccccc2CC12CCN(c1ncc([Se]c3ccccc3)nn1)CC2` [Example 40, (S)-1′-(6-(phenylselanyl)-1,2,4-triazin-3-yl)-1,3-dihydrospiro[indene-2,4′-piperidin]-1-amine], for which the pIC50 in experiment [1] was 8.10.
As for `C[C@@H]1OCC2(CCN(c3ncc(Sc4ccc(N)nc4C(F)(F)F)nn3)CC2)[C@@H]1N` [Example 56, (3S,4S)-8-(6-((6-amino-2-(trifluoromethyl)pyridin-3-yl)thio)-1,2,4-triazin-3-yl)-3-methyl-2-oxa-8-azaspiro[4.5]decan-4-amine], the negative logarithm of the IC50 (pIC50) in experiment [1] was 5.86.
Turning to `N[C@@H]1c2ccccc2CC12CCN(c1ncc(Sc3cnc4ncccn34)nn1)CC2` [Example 68, (S)-1′-(6-(imidazo[1,2-a]pyrimidin-3-ylthio)-1,2,4-triazin-3-yl)-1,3-dihydrospiro[indene-2,4′-piperidin]-1-amine], in experiment [1], the pIC50 was 7.48.
Consider `N[C@@H]1c2ccccc2CC12CCN(c1ncc(Oc3cnc4[nH]ccc4c3)nn1)CC2` [Example 72, (S)-1′-(6-((1H-pyrrolo[2,3-b]pyridin-5-yl)oxy)-1,2,4-triazin-3-yl)-1,3-dihydrospiro[indene-2,4′-piperidin]-1-amine], for which the pIC50 in experiment [1] is 4.79.
In the case of `[2H][C@@]1(N)c2ccccc2CC12CCN(c1ncc(Sc3ccnc(N)c3Cl)nn1)CC2` [Example 74, (S)-1′-(6-((2-amino-3-chloropyridin-4-yl)thio)-1,2,4-triazin-3-yl)-1,3-dihydrospiro[indene-2,4′-piperidin]-1-d-1-amine], the IC50 in experiment [2] was found to be 1 nM.
Take `[2H][C@]1(N)c2ccccc2CC12CCN(c1ncc(Sc3ccnc(N)c3Cl)nn1)CC2` [Example 75, (R)-1′-(6-((2-amino-3-chloropyridin-4-yl)thio)-1,2,4-triazin-3-yl)-1,3-dihydrospiro[indene-2,4′-piperidin]-1-d-1-amine]: the IC50 in experiment [2] was 100 nM.
As to `Nc1nccc(Sc2cnc(N3C4CCC3CC3(Cc5ccccc5[C@H]3N)C4)nn2)c1Cl` (stereo partly drawn) [Example 78, (1′S)-8-(6-((2-amino-3-chloropyridin-4-yl)thio)-1,2,4-triazin-3-yl)-1′,3′-dihydro-8-azaspiro[bicyclo[3.2.1]octane-3,2′-inden]-1′-amine], in experiment [1], the pIC50 is 4.82.
